# US20260265771A1, “METHODS OF INCREASING THE REGENERATION EFFICIENCY IN PLANTS” (Institute of Genetics and Developmental Biology Chinese …, priority 2022, published 2026)
# “Also recorded” adds a separate entry of the source.
# Tests used:
# [1] = system: hypocotyl explants of tomato cultivar Ailsa Craig; experiment: Shoot regeneration of tomato hypocotyl explants on shoot inducing medium (SIM); type: cell-based
# Procedure: FIG. 8—Hypocotyl explants of wild-type (WT) Ailsa Craig and prr mutants cultured in the presence or absence of SIPEP (REF1) at 1 nM in a shoot inducing medium for 21 days.
# Relative regeneration frequency was determined by counting the number of regenerated shoots and calculating the average for each group, the average of each group was then divided by the average of the control group.
# The number of hypocotyls means explants with varying numbers of regenerated shoots.
# To test whether SIPEP (REF1) could rescue shoot regeneration defects in prr mutants were cultured in shoot inducing medium (SIM) in the presence and absence of 1 nM REF1. Shoot regeneration was then scored after 21 days.
# Relative regeneration frequency was determined by counting the number of regenerated shoots and calculating the average for each group, the average of each group was then divided by the average of the WT-Mock group.
# ‘The number of hypocotyls’ means explants with different number of regenerated shoots (0, 1, 2, 3 and ≥4) in each of the genotypes (WT, prr-1, prr-2).
# Shoot regeneration was also measured in RER knock out mutants (rer-1 and rer-3) compared to wild type (WT) tomato plants (Ailsa Craig) in the presence and absence of SIPEP (REF1).
# SIWIND1 promoter = SIWIND1 promoter activity (pSIWIND1::GUS) in cut hypocotyls; type: cell-based, tomato; details: cut hypocotyls on MS medium with or without 1 nM REF1
# Procedure: (a) Induction of the SIWIND1 promoter activity at the wound sites of hypocotyl explants. Hypocotyl explants of 7-d-old pSIWIND1::GUS plants were cultured on MS medium with or without 1 nM REF1. Representative images of hypocotyls at indicated time after wounding are shown. Bars, 1 mm. […] Hypocotyls of 7-d-old seedlings of the indicated genotypes were cut and hypocotyl explants were cultured on MS medium for 9 h before gene expression analysis. Hypocotyls of undamaged seedlings were harvested as control. Data are mean±SD, n=3 biological repeats. (c and d) REF1-induced callus formation in WT and sIwind1 mutants. Hypocotyl explants were cultured on CIM with or without 1 nM REF1 for 14 d before callus phenotype was scored. Shown are representative callus images (c) and quantification of the callus projection area (d). […] Hypocotyl explants were cultured on CIM for 14 d and then transferred to SIM with or without 1 nM REF1 for 21 d before shoot organogenesis phenotype was scored. […] Hypocotyl explants were cultured on CIM for 14 d before callus phenotype was scored. Shown are representative callus images (g) and quantification of the callus projection area (h). […] Hypocotyl explants were cultured on CIM for 14 d and then transferred to SIM for 21 d before shoot organogenesis phenotype was scored. […] In (h) and (j), statistical significance was determined by a student's t test (***p<0.001, **p<0.01, *p<0.05). […]
# ectodomains of RER = experiment: Pull-down assay with HA-Flag-tagged RER ectodomains and biotinylated peptides; type: binding, tomato; details: biotinylated peptide
# [2] = system: RER1-SERKs receptor complex; experiment: Co-immunoprecipitation of RER with SERKs in tobacco leaves; type: cell-based, tomato; details: 100 nM REF1
# Procedure: FIG. 49—REF1-RER1 regulates regeneration through SERK co-receptors. (a) RER1 complexes with SERK1, SERK3a and SERK3b in a REF1-dependent manner. Tobacco leaves transfected with SERKs-myc and RER1-HA-Flag were treated with 100 nM REF1 before IP with anti-myc agarose. RER1 and SERKs were detected by immunoblotting with anti-Flag or anti-myc antibodies, respectively. (b and c) REF1-induced callus formation of indicated genotypes. Hypocotyl explants were cultured on CIM with or without 1 nM REF1 for 14 d before callus phenotype was scored. Shown are representative callus images (b) and quantification of the callus projection area (c). Bars, 1 mm. Data are mean±SE. n=30 hypocotyl explants. (d and e) REF1-induced shoot organogenesis of indicated genotypes. Hypocotyl explants were cultured on CIM for 14 d and then transferred to SIM with or without 1 nM REF1 for 21d before shoot organogenesis phenotype was scored. Shown are representative images of hypocotyl explants (d) and the number of regenerated shoots per explant (e). Bars, 0.5 cm. Data are mean±SE. n=50 hypocotyl explants. In (c), the projected area of callus was quantified by Image J. Box plots represented the distribution of projected callus area. […] In (c) and (e), data points from three biological replicates were analysed with a one-sided Kruskal-Wallis test with Holm correction, followed by post hoc Dunn's test. […]
# [3] = WT, prr-1 and prr-2, SIM with 1 nM REF1, 21 days
# Chain of RER1-SERKs receptor complex (as listed by the source): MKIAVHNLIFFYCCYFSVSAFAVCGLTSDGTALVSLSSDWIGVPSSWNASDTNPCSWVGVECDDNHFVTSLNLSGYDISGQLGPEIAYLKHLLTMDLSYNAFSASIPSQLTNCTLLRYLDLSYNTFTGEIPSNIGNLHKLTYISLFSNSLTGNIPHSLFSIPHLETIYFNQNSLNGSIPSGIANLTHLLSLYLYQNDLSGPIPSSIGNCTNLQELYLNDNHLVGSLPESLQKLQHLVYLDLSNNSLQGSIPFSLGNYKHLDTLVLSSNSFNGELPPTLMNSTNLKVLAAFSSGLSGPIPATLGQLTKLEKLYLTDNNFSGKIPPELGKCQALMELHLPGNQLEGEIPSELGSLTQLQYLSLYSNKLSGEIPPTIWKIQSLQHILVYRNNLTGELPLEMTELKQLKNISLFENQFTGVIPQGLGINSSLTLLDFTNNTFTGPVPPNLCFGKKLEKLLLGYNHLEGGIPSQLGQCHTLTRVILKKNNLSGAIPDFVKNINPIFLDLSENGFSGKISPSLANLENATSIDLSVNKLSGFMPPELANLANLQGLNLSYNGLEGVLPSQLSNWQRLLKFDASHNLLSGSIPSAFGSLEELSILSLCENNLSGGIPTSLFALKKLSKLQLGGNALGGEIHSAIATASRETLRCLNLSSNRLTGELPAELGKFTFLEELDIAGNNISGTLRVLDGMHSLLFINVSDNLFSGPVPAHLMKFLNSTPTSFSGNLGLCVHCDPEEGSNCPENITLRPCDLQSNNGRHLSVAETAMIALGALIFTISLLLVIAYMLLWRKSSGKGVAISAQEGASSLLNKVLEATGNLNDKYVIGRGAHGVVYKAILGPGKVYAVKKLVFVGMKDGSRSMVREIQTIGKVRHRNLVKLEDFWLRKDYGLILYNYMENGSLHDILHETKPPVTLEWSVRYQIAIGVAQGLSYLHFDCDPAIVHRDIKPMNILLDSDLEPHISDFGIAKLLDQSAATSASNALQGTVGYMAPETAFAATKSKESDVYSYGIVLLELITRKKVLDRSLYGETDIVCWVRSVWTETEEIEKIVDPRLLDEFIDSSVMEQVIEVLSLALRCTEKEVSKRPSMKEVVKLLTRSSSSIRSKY
# Chain of ectodomains of RER (as listed by the source): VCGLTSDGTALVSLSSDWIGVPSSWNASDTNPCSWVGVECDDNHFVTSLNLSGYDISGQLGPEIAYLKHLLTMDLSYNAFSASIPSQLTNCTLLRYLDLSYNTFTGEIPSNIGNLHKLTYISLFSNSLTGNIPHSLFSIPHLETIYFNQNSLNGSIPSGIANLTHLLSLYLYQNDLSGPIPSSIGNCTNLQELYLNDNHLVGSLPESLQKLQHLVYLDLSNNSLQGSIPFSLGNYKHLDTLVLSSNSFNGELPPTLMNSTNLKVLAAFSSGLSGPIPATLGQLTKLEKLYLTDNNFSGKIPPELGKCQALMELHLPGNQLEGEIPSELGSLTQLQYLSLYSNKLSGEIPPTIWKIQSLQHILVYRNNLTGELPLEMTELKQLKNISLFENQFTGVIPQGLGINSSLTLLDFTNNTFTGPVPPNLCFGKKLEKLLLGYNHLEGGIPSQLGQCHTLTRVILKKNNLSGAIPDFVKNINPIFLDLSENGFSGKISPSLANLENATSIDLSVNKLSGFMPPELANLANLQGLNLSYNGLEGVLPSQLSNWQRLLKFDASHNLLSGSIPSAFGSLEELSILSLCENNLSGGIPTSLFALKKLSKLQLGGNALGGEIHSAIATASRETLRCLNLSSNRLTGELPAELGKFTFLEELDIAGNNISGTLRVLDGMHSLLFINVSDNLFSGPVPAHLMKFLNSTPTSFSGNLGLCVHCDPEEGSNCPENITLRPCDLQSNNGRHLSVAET
sequence,measurement,setting,value
"ATDRRGRPPSRPKVGSGPPPQNN (listed as Solanum lycopersicum) [REF1, 23 amino acid tomato peptide cleaved from precursor PROSIPEP]",shoot regeneration,"[1]; WT Ailsa Craig, SIM with 1 nM REF1 vs without, 21 days",increased; also recorded: highest
same,number of hypocotyl,[1]; [3],increased
same,relative regeneration frequency,[1]; [3],increased
same,shoot regeneration,"[1]; prr-1 and prr-2 mutants, SIM with 1 nM REF1, 21 days",rescued
same,"REF1 induced shoot regeneration (shoot regeneration frequency, number of hypocotyl)","[1]; rer-1 and rer-3 knockouts, presence vs absence of REF1",did not lead to any increase; also recorded: defective
same,SIWIND1 promoter activity / expression,SIWIND1 promoter,enhanced; also recorded: promoting SIWIND1 expression
same,binding to RER ectodomain (pull-down),ectodomains of RER,binds
same,"complex formation of RER with SERK1, SERK3a and SERK3b (co-IP)",[2],could simulate complex formation; also recorded: REF1-dependent
